pIC50: −log10 of the molar value. Values belong to the compound of their own block, whether it stands above or below them.
Molecular target: Bek (Homo sapiens, UniProt P21802)
Experiment: Inhibitory activity against Bek-autophosphorylation using ELISA method in OCUM-2MD3 cells
Format: cell-based
Conditions: 1 hr with compound, read-out: IC50 (concentration necessary for inhibiting 50% of Bek-phosphorylation)
Protocol: Human scirrhus stomach cancer cells OCUM-2MD3 (kindly provided by Dr. Kosei Hirakawa, Osaka City University) were cultured in an RPMI medium containing 10% fetal calf serum (purchased from ICN) within a 5% carbon dioxide incubator until 50 to 90% confluent. The harvested cells were seeded onto 96-well flat-bottom plate in RPMI containing 0.1% fetal calf serum at 3.5×10^4 cells per well, followed by cultivation at 37° C. overnight. A solution of the test compound in dimethyl sulfoxide was added to each well, and the cultivation was continued at 37° C. for additional one hr. The medium was removed, and 50 μl of lysis buffer (20 mM HEPES (pH 7.4), 150 mM NaCl, 0.2% Triton X-100, 10% glycerol, 5 mM sodium orthovanadylate, 5 mM disodium ethylenediaminetetraacetate, and 2 mM Na4P2O7) was then added thereto. The mixture was shaken at 4° C. for 2 hr to prepare cell extracts.
Separately, phosphate buffered saline (50 μl, pH 7.4) containing 5 μg/ml of anti-phospho-tyrosine antibody (PY20; purchased from Transduction Laboratories) was added to a microplate for ELISA (Maxisorp; purchased from NUNC), followed by standing at 4° C. overnight to form a solid phase on the wells. After washing of the plate, 300 μl of a blocking solution was added, followed by standing at room temperature for 2 hr to perform blocking. After washing, the whole quantity of the cell extracts was transferred to the wells, and the plate was then allowed to stand at 4° C. overnight. After washing, an anti-Bek antibody (Bek (C-17), purchased from Santa Cruz Biotechnology) or Anti-Human K-sam Rabbit IgG Affinity Purity (purchased from IBL Co., Ltd.) was allowed to react at room temperature for one hr, and, after washing, a peroxidase-labeled anti-rabbit Ig antibody (purchased from Amersham) was allowed to react at room temperature for one hr. After washing, a chromophoric substrate for peroxidase (purchased from Sumitomo Bakelite Co., Ltd.) was added thereto to initiate a reaction. After a suitable level of color development, a reaction termination solution was added to stop the reaction, and the absorbance at 450 nm was measured with a microplate reader. The Bek-phosphorylation activity for each well was determined by presuming the absorbance without the addition of the medicament to be 100% Bek-phosphorylation activity and the absorbance with the addition of a large excess of a positive control (N-{4-[(6,7-dimethoxy-4-quinolyl)oxy]phenyl}-N′-(3,3-dimethylbutyl)urea, 1000 nM) to be 0% Bek-phosphorylation activity. The concentration of the test compound was varied on several levels, the Bek-phosphorylation inhibitory activity was determined for each case, and the concentration of the test compound necessary for inhibiting 50% of Bek-phosphorylation (IC50) was calculated.

Chain of Bek (P21802 431-767 limits assumed): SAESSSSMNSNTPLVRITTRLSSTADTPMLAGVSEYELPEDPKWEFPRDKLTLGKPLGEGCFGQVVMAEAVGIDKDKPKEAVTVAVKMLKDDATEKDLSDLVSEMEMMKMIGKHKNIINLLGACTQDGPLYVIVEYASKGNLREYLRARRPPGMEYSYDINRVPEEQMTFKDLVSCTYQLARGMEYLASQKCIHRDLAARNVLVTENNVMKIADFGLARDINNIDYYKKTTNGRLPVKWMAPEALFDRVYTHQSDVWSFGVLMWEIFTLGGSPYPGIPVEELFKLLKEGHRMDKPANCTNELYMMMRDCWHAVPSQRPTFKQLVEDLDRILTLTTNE

Structure (SMILES): COc1cc2c(Oc3ccc(NC(=O)NCCC(C)(C)C)c(Cl)c3)ccnc2cc1OCCN1C(=O)c2ccccc2C1=O [Compound 173, 1-(2-Chloro-4-{7-[2-(1,3-dioxo-1,3-dihydro-isoindol-2-yl)-ethoxy]-6-methoxy-quinolin-4-yloxy}-phenyl)-3-(3,3-dimethyl-butyl)-urea]
- pIC50: 6.82

Structure (SMILES): COc1cc2c(Oc3ccc(NC(=O)NCCC(C)(C)C)cc3Cl)ccnc2cc1OCCCN1CCC(CO)CC1 [Compound 339, 1-(3-Chloro-4-{7-[3-(4-hydroxymethyl-piperidin-1-yl)-propoxy]-6-methoxy-quinolin-4-yloxy}-phenyl)-3-(3,3-dimethyl-butyl)-urea]
- pIC50: 7.79

Structure (SMILES): COc1cc2c(Oc3ccc(Nc4ccc(C(C)C)cc4)cc3)ccnc2cc1OCC(=O)N1CCOCC1 [Compound 229, 2-{4-[4-(4-Isopropyl-phenylamino)-phenoxy]-6-methoxy-quinolin-7-yloxy}-1-morpholin-4-yl-ethanone]
- pIC50: 6.81

Structure (SMILES): COc1cc2nccc(Oc3c(Cl)cc(NC(=O)NCCC(C)(C)C)cc3Cl)c2cc1OC [Compound 140, 1-[3,5-Dichloro-4-(6,7-dimethoxy-quinolin-4-yloxy)-phenyl]-3-(3,3-dimethyl-butyl)-urea]
- pIC50: 6.76

Structure (SMILES): COc1cc2c(Oc3ccc(NC(=O)NCCC(C)(C)C)cc3F)ccnc2cc1OCCN1CCC(CO)CC1 [Compound 295, 1-(3,3-Dimethyl-butyl)-3-(3-fluoro-4-{7-[2-(4-hydroxymethyl-piperidin-1-yl)-ethoxy]-6-methoxy-quinolin-4-yloxy}-phenyl)-urea]
- pIC50: 7.84

Structure (SMILES): COc1cc2c(Oc3ccc(NC(=O)NCCC(C)(C)C)cc3F)ccnc2cc1OCCN1CCCCC1 [Compound 129, 1-(3,3-Dimethyl-butyl)-3-{3-fluoro-4-[6-methoxy-7-(2-piperidin-1-yl-ethoxy)-quinolin-4-yloxy]-phenyl}-urea]
- pIC50: 7.32

Structure (SMILES): COc1cc2c(Oc3ccc(Nc4ccc(C(C)(C)C)cc4)cc3)ncnc2cc1OCCN1CCOCC1 [Compound 78, (4-Tert-butylphenyl)-{4-[6-methoxy-7-(2-morpholin-4-ylethoxy)quinazolin-4-yloxy]phenyl}amine]
- pIC50: 6.56

Structure (SMILES): COc1cc2c(Oc3ccc(NC(=O)NCCC(C)(C)C)c(Cl)c3)ccnc2cc1OCCN1CCC(CCO)CC1 [Compound 292, 1-[2-Chloro-4-(7-{2-[4-(2-hydroxy-ethyl)-piperidin-1-yl]-ethoxy}-6-methoxy-quinolin-4-yloxy)-phenyl]-3-(3,3-dimethyl-butyl)-urea]
- pIC50: 7.30

Structure (SMILES): COc1cc2c(Oc3ccc(Nc4ccc(C(C)(C)C)cc4)cc3)ccnc2cc1OCCCN1CC(C)OC(C)C1 (stereo not shown) [Compound 232, (4-Tert-butyl-phenyl)-(4-{7-[3-(2,6-dimethyl-morpholin-4-yl)-propoxy]-6-methoxy-quinolin-4-yloxy}-phenyl)-amine]
- pIC50: 6.99

Structure (SMILES): COc1cc2c(Oc3ccc(Nc4ccc(C(C)(C)C)cc4)cc3F)ccnc2cc1OCCCN1CCC(O)CC1 [Compound 273, 1-(3-{4-[4-(4-Tert-butyl-phenylamino)-2-fluoro-phenoxy]-6-methoxy-quinolin-7-yloxy}-propyl)-piperidin-4-ol]
- pIC50: 6.79

Structure (SMILES): COc1cc2nccc(Oc3ccc(Nc4nc(C)c(C)s4)cc3)c2cc1OC [Compound 75, [4-(6,7-Dimethoxyquinolin-4-yloxy)phenyl]-(4,5-dimethylthiazol-2-yl)amine]
- pIC50: 5.28

Structure (SMILES): COc1cc2c(Oc3ccc(NC(=O)NCCC(C)(C)C)c(F)c3)ccnc2cc1OCCCCl [Compound 204, 1-{4-[7-(3-Chloro-propoxy)-6-methoxy-quinolin-4-yloxy]-2-fluoro-phenyl}-3-(3,3-dimethyl-butyl)-urea]
- pIC50: 6.63

Structure (SMILES): COc1cc2nccc(Oc3ccc(N(C)c4ccc(C(C)(C)C)cc4)cc3)c2cc1OC [Compound 20, (4-Tert-butylphenyl)-[4-(6.7-dimethoxyquinolin-4-yloxy)phenyl]-methylamine]
- pIC50: 6.49

Structure (SMILES): COc1cc2nccc(Oc3ccc(Nc4ccc(C(C)(C)C)cc4)c(F)c3)c2cc1OC [Compound 19, (4-Tert-butylphenyl)-[4-(6,7-dimethoxyquinolin-4-yloxy)-2-fluorophenyl]amine]
- pIC50: 6.71

Structure (SMILES): COc1cc2c(Oc3ccc(Nc4ccc(C(C)(C)C)cc4)cc3)ccnc2cc1OCCN1CCC(N2CCCC2)CC1 [Compound 243, (4-Tert-butyl-phenyl)-(4-{6-methoxy-7-[2-(4-pyrrolidin-1-yl-piperidin-1-yl)-ethoxy]-quinolin-4-yloxy}-phenyl)-amine]
- pIC50: 6.47

Structure (SMILES): COc1cc2nccc(Oc3cc(C)c(Nc4ccc(C(C)(C)C)cc4)cc3C)c2cc1OC [Compound 17, (4-Tert-butylphenyl)-[4-(6,7-dimethoxyquinolin-4-yloxy)-2,5-dimethylphenyl]amine]
- pIC50: 5.25

Continued, values first:

- pIC50: 7.46
Structure (SMILES): COc1cc2c(Oc3ccc(Nc4ccc(C(C)(C)C)cc4)cc3)ccnc2cc1OCCN1CCCCCC1 [Compound 50, {4-[7-(2-Azepan-1-ylethoxy)-6-methoxyquinolin-4-yloxy]phenyl}-(4-tert-butylphenyl)amine]

- pIC50: 6.42
Structure (SMILES): COc1cc2c(Oc3ccc(Nc4ccc(C(C)(C)C)cc4)cc3Cl)ccnc2cc1OCCN1CCC(O)CC1 [Compound 307, 1-(2-{4-[4-(4-Tert-butyl-phenylamino)-2-chloro-phenoxy]-6-methoxy-quinolin-7-yloxy}-ethyl)-piperidin-4-ol]

- pIC50: 6.80
Structure (SMILES): COc1cc2c(Oc3ccc(Nc4ccc(C(C)(C)C)cc4)c(F)c3)ccnc2cc1OCCN1CCOCC1 [Compound 79, (4-Tert-butylphenyl)-{2-fluoro-4-[6-methoxy-7-(2-morpholin-4-ylethoxy)quinolin-4-yloxy]phenyl}amine]

- pIC50: 7.51
Structure (SMILES): COc1cc2c(Oc3ccc(NC(=O)NCCC(C)(C)C)c(F)c3)ccnc2cc1OCCCN1CCC(CCO)CC1 [Compound 304, 1-(3,3-Dimethyl-butyl)-3-[2-fluoro-4-(7-{3-[4-(2-hydroxy-ethyl)-piperidin-1-yl]-propoxy}-6-methoxy-quinolin-4-yloxy)-phenyl]-urea]

- pIC50: 7.28
Structure (SMILES): COc1cc2c(Oc3ccc(Nc4ccc(C(C)(C)C)cc4)cc3F)ccnc2cc1OCCN(CCO)CCO [Compound 336, 2-[(2-{4-[4-(4-Tert-butyl-phenylamino)-2-fluoro-phenoxy]-6-methoxy-quinolin-7-yloxy}-ethyl)-(2-hydroxy-ethyl)-amino]-ethanol]

- pIC50: 7.71
Structure (SMILES): COc1cc2c(Oc3ccc(NC(=O)NCCC(C)(C)C)c(Cl)c3)ccnc2cc1OCC(O)CN1CCCCCC1 (stereo not shown) [Compound 194, 1-{4-[7-(3-Azepan-1-yl-2-hydroxy-propoxy)-6-methoxy-quinolin-4-yloxy]-2-chloro-phenyl}-3-(3,3-dimethyl-butyl)-urea]

- pIC50: 7.15
Structure (SMILES): COc1cc2nccc(Oc3ccc(NC(=O)NCCC(C)(C)C)cc3)c2cc1OCCCN(C)C [Compound 224, 1-{4-[6-(3-Dimethylamino-propoxy)-7-methoxy-quinolin-4-yloxy]-phenyl}-3-(3,3-dimethyl-butyl)-urea]

- pIC50: 7.64
Structure (SMILES): COc1cc2c(Oc3ccc(NC(=O)NCCC(C)(C)C)c(Cl)c3)ccnc2cc1OCCCN1CCCCC1 [Compound 180, 1-{2-Chloro-4-[6-methoxy-7-(3-piperidin-1-yl-propoxy)-quinolin-4-yloxy]-phenyl}-3-(3,3-dimethyl-butyl)-urea]

- pIC50: 5.12
Structure (SMILES): COc1cc2nccc(Oc3ccc(Nc4nn(-c5ccccc5)c(=O)o4)cc3)c2cc1OC [Compound 76, 5-[4-(6,7-Dimethoxyquinolin-4-yloxy)phenylamino]-3-phenyl-3H-[1,3,4]oxazol-2-one]

Source: US7495104B2, “Quinoline or quinazoline derivatives inhibiting auto-phosphorylation of fibroblast growth factor receptors” (Kirin Beer Kabushiki Kaisha, priority 2001, dated 2009)
